Test results taken from paper PMC5862592, “CDK8/19 inhibition induces premature G1/S transition and ATR-dependent cell death in prostate cancer cells” (Oncotarget, 2018).
Where two headings read alike, the source gives them in different places.

Key:
Assay in all cases: biochemical
Parameters in all cases: KINOMEscan active site-directed competition binding assay (DiscoveRx), 456 kinases, per cent of control at 300 nM
Conditions in all cases: read-out: Percent of Control (%)
[1] = molecular target: EPHA7 (Homo sapiens, UniProt Q15375)
Summary of the method: (§1)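 Compounds at 300 nmol/L screened against 456 kinases by KINOMEscan, a competition binding assay measuring displacement at the kinase active site.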

[2] = molecular target: CSNK1D (Homo sapiens, UniProt P48730)
Summary of the method: as §1

[3] = molecular target: NLK (Homo sapiens, UniProt Q9UBE8)
Summary of the method: as §1

[4] = molecular target: PIK3C2G (Homo sapiens, UniProt O75747)
Summary of the method: as §1

[5] = molecular target: TNK2 (Homo sapiens, UniProt Q07912)
Summary of the method: as §1

[6] = molecular target: NEK2 (Homo sapiens, UniProt P51955)
Summary of the method: as §1

[7] = molecular target: CAMK4 (Homo sapiens, UniProt Q16566)
Summary of the method: as §1

[8] = molecular target: PIK3CB (Homo sapiens, UniProt P42338)
Summary of the method: as §1

[9] = molecular target: T1, MST3 (Homo sapiens, UniProt Q9Y6E0)
T1 construct: gene STK24
Summary of the method: as §1

[10] = molecular target: T2, ABL1(T315I)-nonphosphorylated (Homo sapiens, UniProt P00519, T315I)
T2 construct: nonphosphorylated
Summary of the method: as §1

[11] = molecular target: MAPKAPK2 (Homo sapiens, UniProt P49137)
Summary of the method: as §1

[12] = molecular target: SRPK1 (Homo sapiens, UniProt Q96SB4)
Summary of the method: as §1

[13] = molecular target: SNRK (Homo sapiens, UniProt Q9NRH2)
Summary of the method: as §1

[14] = molecular target: CSNK1G3 (Homo sapiens, UniProt Q9Y6M4)
Summary of the method: as §1

[15] = molecular target: T3, AMPK-alpha2 (Homo sapiens, UniProt P54646)
T3 construct: gene PRKAA2
Summary of the method: as §1

[16] = molecular target: T4, PCTK2 (Homo sapiens, UniProt Q00537)
T4 construct: gene CDK17
Summary of the method: as §1

[17] = molecular target: MARK3 (Homo sapiens, UniProt P27448)
Summary of the method: as §1

[18] = molecular target: PIM3 (Homo sapiens, UniProt Q86V86)
Summary of the method: as §1

[19] = molecular target: CLK3 (Homo sapiens, UniProt P49761)
Summary of the method: as §1

[20] = molecular target: T5, ERK8 (Homo sapiens, UniProt Q8TD08)
T5 construct: gene MAPK15
Summary of the method: as §1

[21] = molecular target: PIK3CD (Homo sapiens, UniProt O00329)
Summary of the method: as §1

[22] = molecular target: BTK (Homo sapiens, UniProt Q06187)
Summary of the method: as §1

Sequence of NLK (Q9UBE8 whole entry): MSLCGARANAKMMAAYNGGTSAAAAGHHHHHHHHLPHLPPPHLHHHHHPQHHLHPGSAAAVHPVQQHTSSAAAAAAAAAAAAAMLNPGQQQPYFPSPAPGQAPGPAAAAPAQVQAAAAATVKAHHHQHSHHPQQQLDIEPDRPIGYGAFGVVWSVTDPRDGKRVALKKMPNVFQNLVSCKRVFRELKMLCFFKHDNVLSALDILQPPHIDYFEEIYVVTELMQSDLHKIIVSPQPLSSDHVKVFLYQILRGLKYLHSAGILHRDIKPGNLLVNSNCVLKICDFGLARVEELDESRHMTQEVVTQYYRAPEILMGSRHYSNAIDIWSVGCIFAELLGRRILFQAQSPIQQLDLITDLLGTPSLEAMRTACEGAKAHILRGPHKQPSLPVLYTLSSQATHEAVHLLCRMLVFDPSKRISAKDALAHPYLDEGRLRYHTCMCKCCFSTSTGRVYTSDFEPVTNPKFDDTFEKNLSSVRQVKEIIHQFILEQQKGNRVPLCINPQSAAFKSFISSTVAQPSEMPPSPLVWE
Sequence of MARK3 (P27448 whole entry): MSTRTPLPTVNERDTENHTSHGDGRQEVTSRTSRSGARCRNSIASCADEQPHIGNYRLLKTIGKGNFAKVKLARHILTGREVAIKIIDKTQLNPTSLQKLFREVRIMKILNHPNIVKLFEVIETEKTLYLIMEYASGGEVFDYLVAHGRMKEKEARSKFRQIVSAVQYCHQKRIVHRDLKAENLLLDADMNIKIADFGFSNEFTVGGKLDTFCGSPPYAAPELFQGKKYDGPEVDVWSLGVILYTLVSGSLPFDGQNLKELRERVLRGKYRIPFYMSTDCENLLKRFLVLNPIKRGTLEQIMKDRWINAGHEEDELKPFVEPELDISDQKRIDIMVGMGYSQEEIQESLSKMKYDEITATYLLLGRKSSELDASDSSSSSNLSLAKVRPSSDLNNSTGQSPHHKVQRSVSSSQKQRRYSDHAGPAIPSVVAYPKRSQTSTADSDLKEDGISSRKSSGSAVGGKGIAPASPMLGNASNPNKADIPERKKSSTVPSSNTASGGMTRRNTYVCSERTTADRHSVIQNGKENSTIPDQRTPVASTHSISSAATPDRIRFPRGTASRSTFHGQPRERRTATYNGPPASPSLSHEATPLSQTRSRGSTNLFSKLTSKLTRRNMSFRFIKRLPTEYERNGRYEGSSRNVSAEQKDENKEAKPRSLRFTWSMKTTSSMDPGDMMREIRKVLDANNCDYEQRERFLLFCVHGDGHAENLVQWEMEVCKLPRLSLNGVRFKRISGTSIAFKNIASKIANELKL
Sequence of CLK3 (P49761 whole entry): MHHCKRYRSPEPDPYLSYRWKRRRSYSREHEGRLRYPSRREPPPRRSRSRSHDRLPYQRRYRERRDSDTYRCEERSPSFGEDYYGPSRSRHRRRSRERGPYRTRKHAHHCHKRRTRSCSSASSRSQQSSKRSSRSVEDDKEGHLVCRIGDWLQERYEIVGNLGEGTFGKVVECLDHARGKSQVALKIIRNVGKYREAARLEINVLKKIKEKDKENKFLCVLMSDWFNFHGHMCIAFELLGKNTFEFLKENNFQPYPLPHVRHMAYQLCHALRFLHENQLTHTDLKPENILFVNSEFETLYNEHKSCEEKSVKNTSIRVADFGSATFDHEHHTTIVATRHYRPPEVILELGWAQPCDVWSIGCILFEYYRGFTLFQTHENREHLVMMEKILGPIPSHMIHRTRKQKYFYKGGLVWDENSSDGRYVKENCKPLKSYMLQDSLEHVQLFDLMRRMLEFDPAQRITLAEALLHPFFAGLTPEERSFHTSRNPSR
Sequence of PIK3CD (O00329 whole entry): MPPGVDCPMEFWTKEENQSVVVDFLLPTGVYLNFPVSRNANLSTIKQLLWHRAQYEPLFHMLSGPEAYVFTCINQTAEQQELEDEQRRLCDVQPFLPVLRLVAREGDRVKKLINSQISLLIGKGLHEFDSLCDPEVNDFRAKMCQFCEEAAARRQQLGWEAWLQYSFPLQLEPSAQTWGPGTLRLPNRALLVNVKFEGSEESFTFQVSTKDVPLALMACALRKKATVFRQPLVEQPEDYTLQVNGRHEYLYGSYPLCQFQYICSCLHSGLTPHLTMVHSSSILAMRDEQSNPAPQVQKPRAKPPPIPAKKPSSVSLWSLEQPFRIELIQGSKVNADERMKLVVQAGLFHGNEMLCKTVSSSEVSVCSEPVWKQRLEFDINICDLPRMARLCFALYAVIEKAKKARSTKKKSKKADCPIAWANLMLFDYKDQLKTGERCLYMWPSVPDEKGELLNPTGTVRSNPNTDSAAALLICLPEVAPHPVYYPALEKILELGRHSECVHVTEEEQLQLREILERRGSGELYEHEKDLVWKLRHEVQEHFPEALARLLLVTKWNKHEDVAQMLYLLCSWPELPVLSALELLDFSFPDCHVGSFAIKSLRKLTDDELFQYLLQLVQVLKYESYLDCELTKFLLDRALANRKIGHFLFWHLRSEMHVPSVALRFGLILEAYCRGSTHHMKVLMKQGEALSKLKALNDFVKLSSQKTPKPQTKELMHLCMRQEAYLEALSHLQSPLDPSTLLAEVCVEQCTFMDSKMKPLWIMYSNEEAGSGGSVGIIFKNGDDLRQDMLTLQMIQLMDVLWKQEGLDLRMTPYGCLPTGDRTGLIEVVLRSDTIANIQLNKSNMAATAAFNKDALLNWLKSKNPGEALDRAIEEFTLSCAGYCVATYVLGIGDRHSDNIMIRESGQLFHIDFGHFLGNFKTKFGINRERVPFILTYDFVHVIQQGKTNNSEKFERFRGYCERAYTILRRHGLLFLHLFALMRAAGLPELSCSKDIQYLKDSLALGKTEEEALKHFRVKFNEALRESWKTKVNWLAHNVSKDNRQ
Sequence of BTK (Q06187 whole entry): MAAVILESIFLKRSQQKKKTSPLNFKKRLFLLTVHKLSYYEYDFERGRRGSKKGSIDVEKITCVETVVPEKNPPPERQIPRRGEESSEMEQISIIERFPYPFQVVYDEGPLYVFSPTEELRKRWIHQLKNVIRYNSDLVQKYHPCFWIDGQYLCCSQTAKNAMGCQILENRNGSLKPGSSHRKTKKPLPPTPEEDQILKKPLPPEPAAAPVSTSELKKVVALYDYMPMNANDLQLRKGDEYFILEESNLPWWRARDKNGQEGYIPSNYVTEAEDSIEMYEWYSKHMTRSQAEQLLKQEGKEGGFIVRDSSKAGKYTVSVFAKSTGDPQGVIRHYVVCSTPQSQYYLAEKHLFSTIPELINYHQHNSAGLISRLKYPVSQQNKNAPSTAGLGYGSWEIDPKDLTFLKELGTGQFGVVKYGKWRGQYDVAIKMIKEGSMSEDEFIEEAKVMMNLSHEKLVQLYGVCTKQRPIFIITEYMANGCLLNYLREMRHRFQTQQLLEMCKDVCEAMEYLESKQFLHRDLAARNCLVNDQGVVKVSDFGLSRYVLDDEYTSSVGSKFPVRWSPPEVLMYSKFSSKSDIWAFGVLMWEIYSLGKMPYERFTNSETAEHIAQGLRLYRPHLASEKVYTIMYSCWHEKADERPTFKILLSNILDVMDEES
Sequence of SNRK (Q9NRH2 whole entry): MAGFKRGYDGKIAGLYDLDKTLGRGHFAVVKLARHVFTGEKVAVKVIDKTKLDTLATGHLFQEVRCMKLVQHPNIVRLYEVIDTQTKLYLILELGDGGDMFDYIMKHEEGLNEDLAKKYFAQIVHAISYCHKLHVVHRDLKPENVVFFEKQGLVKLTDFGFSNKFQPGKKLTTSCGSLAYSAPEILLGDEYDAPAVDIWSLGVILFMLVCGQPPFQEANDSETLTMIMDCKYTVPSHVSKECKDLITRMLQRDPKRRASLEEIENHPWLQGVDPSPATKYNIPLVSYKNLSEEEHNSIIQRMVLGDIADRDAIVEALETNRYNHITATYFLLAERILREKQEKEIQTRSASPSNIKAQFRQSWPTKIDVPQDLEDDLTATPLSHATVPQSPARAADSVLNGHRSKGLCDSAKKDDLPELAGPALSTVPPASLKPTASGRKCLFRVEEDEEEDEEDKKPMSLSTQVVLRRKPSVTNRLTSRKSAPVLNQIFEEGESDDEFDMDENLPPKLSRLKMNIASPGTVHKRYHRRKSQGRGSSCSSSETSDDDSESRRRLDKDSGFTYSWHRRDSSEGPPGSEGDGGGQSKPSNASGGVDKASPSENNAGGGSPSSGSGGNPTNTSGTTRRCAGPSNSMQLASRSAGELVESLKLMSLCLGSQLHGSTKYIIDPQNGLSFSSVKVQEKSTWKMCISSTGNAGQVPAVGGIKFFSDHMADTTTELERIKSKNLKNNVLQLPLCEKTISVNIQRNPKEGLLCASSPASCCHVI
Sequence of NEK2 (P51955 whole entry): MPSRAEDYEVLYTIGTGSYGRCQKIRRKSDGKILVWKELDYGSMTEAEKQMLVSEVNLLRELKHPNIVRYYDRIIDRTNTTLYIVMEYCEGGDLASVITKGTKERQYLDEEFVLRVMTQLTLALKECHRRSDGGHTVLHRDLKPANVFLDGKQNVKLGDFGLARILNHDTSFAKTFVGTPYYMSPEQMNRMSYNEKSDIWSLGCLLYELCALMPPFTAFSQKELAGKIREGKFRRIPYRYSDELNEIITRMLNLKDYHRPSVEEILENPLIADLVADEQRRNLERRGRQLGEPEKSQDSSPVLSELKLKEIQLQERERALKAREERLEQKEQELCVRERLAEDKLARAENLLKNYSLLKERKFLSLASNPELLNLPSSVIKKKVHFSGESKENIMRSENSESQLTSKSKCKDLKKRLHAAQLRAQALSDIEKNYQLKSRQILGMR

`O=C(/C=C/c1cnccc1-c1ccc(F)cc1)Nc1ccc(CCc2nnco2)cc1` [T-418, (2E)-3-(4-(4-fluorophenyl)pyridin-3-yl)-N-(4-(2-(1,3,4-oxadiazol-2-yl)ethyl)phenyl)acrylamide] was tested, and the remaining binding at 0.3 µM ([1]; sheet T-418) was 96%, the remaining binding at 0.3 µM ([2]; sheet T-418) was 84% and the remaining binding at 0.3 µM ([3]; sheet T-418) was 98%. It also gave a remaining binding at 0.3 µM ([4]; sheet T-418) of 95%, a remaining binding at 0.3 µM ([5]; sheet T-418) of 100% and a remaining binding at 0.3 µM ([6]; sheet T-418) of 100%. The remaining binding at 0.3 µM ([7]; sheet T-418) was 78%, the remaining binding at 0.3 µM ([8]; sheet T-418) was 96% and the remaining binding at 0.3 µM ([9]; sheet T-418) was 100%. It also gave a remaining binding at 0.3 µM ([10]; sheet T-418) of 100%, a remaining binding at 0.3 µM ([11]; sheet T-418) of 100% and a remaining binding at 0.3 µM ([12]; sheet T-418) of 61%. It also gave a remaining binding at 0.3 µM ([13]; sheet T-418) of 73%, a remaining binding at 0.3 µM ([14]; sheet T-418) of 100% and a remaining binding at 0.3 µM ([15]; sheet T-418) of 100%. It also gave a remaining binding at 0.3 µM ([16]; sheet T-418) of 100%, a remaining binding at 0.3 µM ([17]; sheet T-418) of 80% and a remaining binding at 0.3 µM ([18]; sheet T-418) of 76%. The remaining binding at 0.3 µM ([19]; sheet T-418) was 92%, the remaining binding at 0.3 µM ([20]; sheet T-418) was 94% and the remaining binding at 0.3 µM ([21]; sheet T-418) was 99%. For the same compound, the remaining binding at 0.3 µM ([22]; sheet T-418) was 79%.
For `Cc1ncccc1Oc1sc(C(N)=O)c2c1-c1c(cnn1C)CC2` [T-474, 1-methyl-8-((2-methylpyridin-3-yl)oxy)-4,5-dihydro-1H-thieno[3,4-g]indazole-6-carboxamide], the remaining binding at 0.3 µM [1] was 94%, the remaining binding at 0.3 µM [2] was 61% and the remaining binding at 0.3 µM [3] was 100%. It also gave a remaining binding at 0.3 µM [4] of 92%, a remaining binding at 0.3 µM [5] of 100% and a remaining binding at 0.3 µM [6] of 100%. The remaining binding at 0.3 µM [7] was 100%, the remaining binding at 0.3 µM [8] was 100% and the remaining binding at 0.3 µM [9] was 100%. The remaining binding at 0.3 µM [10] was 100%, the remaining binding at 0.3 µM [11] was 100% and the remaining binding at 0.3 µM [12] was 100%. The remaining binding at 0.3 µM [13] was 71%, the remaining binding at 0.3 µM [14] was 100% and the remaining binding at 0.3 µM [15] was 100%. It also gave a remaining binding at 0.3 µM [16] of 100%, a remaining binding at 0.3 µM [17] of 88% and a remaining binding at 0.3 µM [18] of 82%. The remaining binding at 0.3 µM [19] was 100%, the remaining binding at 0.3 µM [20] was 88% and the remaining binding at 0.3 µM [21] was 88%. It also gave a remaining binding at 0.3 µM [22] of 81%.
